One experiment has as its target T1, PI3K-delta (Homo sapiens, UniProt O00329).
T1 construct: purchased Upstate; Millipore 14-604
The experiment in a line: HTRF PI3K biochemical assay, delta isoform. To be noted: form screened (neutral or TFA salt) given, read-out: PI3Kdelta IC50.

The next experiment concerns the target T2, PI3K-alpha (Homo sapiens, UniProt P42336).
T2 construct: purchased Upstate; Millipore 14-602
The experiment can be described thus: HTRF PI3K biochemical assay, alpha isoform. To be noted: ratio PI3K-alpha IC50 value / PI3K-delta IC50 value.

From patent US9938281B2 (Merck Sharp & Dohme Corp., priority 2012, dated 2018) come the findings set out here.

T2 sequence (P42336 whole entry): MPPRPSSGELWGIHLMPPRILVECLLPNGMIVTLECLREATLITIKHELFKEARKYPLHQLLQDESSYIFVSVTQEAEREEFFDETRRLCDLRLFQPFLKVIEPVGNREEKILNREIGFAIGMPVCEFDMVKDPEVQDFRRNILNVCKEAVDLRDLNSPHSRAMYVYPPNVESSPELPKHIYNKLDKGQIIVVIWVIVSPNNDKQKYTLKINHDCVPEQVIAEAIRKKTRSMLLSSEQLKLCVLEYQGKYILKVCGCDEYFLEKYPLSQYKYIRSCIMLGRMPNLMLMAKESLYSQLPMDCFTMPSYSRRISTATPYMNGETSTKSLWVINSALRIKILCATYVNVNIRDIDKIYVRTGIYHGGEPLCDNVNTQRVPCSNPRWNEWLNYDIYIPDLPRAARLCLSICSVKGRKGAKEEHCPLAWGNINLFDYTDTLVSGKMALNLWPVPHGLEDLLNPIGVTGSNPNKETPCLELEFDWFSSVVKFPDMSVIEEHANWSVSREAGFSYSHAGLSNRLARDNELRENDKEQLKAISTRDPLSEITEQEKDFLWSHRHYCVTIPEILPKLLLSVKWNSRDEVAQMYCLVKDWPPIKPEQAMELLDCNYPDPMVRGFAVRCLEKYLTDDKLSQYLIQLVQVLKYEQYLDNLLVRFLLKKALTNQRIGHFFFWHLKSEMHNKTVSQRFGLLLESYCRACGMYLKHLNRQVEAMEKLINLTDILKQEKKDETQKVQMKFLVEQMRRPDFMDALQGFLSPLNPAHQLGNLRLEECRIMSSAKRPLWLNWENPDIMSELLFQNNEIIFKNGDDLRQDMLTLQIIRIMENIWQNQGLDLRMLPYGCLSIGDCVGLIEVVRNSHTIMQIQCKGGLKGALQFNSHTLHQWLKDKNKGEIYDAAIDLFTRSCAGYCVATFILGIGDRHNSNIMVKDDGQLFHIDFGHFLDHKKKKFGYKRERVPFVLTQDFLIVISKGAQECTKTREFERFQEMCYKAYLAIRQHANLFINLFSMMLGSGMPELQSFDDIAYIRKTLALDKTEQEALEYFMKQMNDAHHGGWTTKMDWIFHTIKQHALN
T2 sequence (P27986 whole entry partner): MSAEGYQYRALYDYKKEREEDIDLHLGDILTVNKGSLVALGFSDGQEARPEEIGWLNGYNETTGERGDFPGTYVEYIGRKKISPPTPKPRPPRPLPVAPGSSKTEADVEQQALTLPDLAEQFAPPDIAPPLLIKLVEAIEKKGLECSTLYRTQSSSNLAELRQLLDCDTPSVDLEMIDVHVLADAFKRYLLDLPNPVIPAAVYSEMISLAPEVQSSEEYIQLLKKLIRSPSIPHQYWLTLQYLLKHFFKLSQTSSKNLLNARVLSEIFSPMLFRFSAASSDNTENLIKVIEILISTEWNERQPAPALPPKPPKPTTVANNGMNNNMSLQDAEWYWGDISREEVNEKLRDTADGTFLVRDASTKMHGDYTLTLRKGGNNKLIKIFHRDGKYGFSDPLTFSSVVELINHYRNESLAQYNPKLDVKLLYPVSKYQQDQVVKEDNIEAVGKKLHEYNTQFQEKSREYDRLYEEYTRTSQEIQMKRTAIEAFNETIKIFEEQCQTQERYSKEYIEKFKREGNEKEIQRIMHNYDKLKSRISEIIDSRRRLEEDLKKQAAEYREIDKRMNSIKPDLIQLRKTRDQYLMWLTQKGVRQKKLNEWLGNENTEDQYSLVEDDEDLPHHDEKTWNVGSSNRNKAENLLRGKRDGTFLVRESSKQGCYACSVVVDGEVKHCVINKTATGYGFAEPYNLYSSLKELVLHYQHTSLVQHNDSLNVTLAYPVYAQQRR
T1 sequence (O00329 whole entry): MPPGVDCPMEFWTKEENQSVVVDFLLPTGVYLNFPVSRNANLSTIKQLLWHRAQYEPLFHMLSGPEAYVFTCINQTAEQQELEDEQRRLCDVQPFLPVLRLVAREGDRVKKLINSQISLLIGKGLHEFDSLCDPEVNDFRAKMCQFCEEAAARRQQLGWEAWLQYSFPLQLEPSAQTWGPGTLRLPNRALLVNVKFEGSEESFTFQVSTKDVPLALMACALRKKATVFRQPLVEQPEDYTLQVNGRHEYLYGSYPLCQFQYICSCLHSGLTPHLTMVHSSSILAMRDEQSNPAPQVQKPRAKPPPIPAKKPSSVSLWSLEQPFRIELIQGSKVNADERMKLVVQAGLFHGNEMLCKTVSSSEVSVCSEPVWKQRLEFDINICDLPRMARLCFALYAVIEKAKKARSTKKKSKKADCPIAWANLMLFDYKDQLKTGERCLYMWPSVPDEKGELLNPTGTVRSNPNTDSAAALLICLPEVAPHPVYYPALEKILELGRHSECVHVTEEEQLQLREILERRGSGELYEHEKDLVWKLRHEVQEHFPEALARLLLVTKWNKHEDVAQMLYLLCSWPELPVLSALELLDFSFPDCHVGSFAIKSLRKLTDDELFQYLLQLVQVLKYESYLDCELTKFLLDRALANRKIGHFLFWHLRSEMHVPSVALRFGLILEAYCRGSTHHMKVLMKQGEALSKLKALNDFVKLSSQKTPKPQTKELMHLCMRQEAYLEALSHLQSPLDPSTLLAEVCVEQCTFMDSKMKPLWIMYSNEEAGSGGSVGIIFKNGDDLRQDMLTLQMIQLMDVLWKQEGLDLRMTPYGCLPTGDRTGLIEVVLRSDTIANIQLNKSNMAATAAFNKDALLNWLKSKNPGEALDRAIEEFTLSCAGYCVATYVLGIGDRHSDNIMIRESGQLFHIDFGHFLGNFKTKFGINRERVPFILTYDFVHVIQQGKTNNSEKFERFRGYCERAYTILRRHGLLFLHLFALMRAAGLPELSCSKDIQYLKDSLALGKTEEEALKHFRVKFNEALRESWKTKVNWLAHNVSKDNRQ
T1 sequence (P27986 whole entry partner): as the sequence (P27986 whole entry partner) above
From the text for PI3K-alpha: The PI3-Kinase biochemical assays were developed to measure the intrinsic potency and compound dependent inhibition of the alpha, beta, delta, and gamma PI3K isoform enzymes. This assay was developed and further optimized from a kit produced by Upstate (Millipore catalog #33-047) and has been configured for HTS and SAR screening. Briefly, this procedure exploits the exquisite specificity and high affinity binding of enzyme reaction substrate phosphatidyl(3,4,5)triphosphate (PIP3) to the GRP1 pleckstrin homology (PH) domain to generate the signal. In the absence of PIP3, an HTRF (Homogeneous Time-Resolved Fluorescence energy transfer) complex is formed consisting of europium (Eu)-labeled anti-GST, GSTtagged GRP1-PH domain, biotin-PIP3 and streptavidin conjugated APC. The native PIP3 produced by PI3-Kinase activity disrupts in a competitive manner the biotin-PIP3 from the PH domain, resulting in the loss of energy transfer (HTRF complex) and a decrease in the signal. The format of this assay is the same for all 4 isoforms of PI3K; the differences lie in the concentration of enzyme used to achieve robust assay window. The alpha, beta, and delta assays are run at 0.5, 1, and 0.3 nM enzymes and the gamma assay is run at 5 nM enzyme. The ATP concentration is 100 uM in the alpha, beta, and delta assays and 50 uM ATP in the gamma assay. All reactions are run at 5 uM PIP2.
(§1) Compounds are serially diluted (3-fold in 100% DMSO) across a 384-well polypropylene source plated from column 3 to column 12 and column 13 to column 22, to yield 10 concentration dose response for each test compound. Columns 1, 2, 23 and 24 contain either only DMSO or pharmacological known control inhibitor.
(§2) The PI3-Kinase biochemical assay was optimized using the HTRF kit provided by Upstate (Millipore). The assay kit contains six reagents: 1) 4× Reaction Buffer; 2) native PIP2 (substrate); 3) Stop (EDTA); 4) Detection Mix A (Streptavidin-APC); 5) Detection Mix B (Eu-labeled Anti-GST plus GST-tagged PH-domain); 6) Detection Mix C.
(§3) PI3Kinase Reaction Buffer is prepared by dilution the stock 1:4 with de-ionized water. […] Enzyme addition and compound pre-incubation are initiated by the addition of 1.25 ul of PI3K (at twice its final concentration) in the 1× reaction buffer to all wells using a BioRaptor. Plates are incubated at room temperature for 15 minutes. Reactions are initiated by addition of 1.25 ul of 2× substrate solution (PIP2 and ATP in 1× reaction buffer) using BioRaptor. Plates are incubated in humidified chamber at room temperature for one hour. Reactions are quenched by addition of 0.625 uL of stop solution to all wells using the BioRaptor. The quenched reactions are then processed to detect product formation by adding 0.625 uL of Detection Solution to all wells using the BioRaptor (Detection mix C, Detection Mix A, and Detection Mix B combined together in an 18:1:1 ratio prepared 2 hours prior to use).
(§4) The loss of the HTRF signal is due to the displacement of biotinylated-PIP3 from the PH domain by the PI3K-dependent conversion of PIP2 to PIP3. This loss of signal is nonlinear with respect to both increasing product and time. This non-linear detection will impact accuracy of IC50 calculations; therefore, there is a need for a correction factor to obtain more accurate IC50 values. This correction is derived from a PIP3 standard curve run in a separate assay plate. All data were calculated using the ratio of acceptor (APC) to donor (Europium) fluorescence in each well of the assay plate. […] An IC50 was then calculated fitting the % inhibition data to the equation: % inhibition=min+(Max−min)/1+([inhibitor]/IC50)^n) where min is the % inhibition with inhibitor, max is the signal in DMSO control, and n is the Hill slope.
The determination of relative selectivity for a given compound is defined as the relative ratio of the (PI3K-alphalC50 value/PI3K-delta IC50 value).
From the text for PI3K-delta: HTRF PI3K Biochemical Assay to Measure Intrinsic Potency of Compound Inhibitors
This assay was developed and further optimized from a kit produced by Upstate (Millipore catalog #33-047) and has been configured for HTS and SAR screening. Briefly, this procedure exploits the exquisite specificity and high affinity binding of enzyme reaction substrate phosphatidyl(3,4,5)triphosphate (PIP3) to the GRP1 pleckstrin homology (PH) domain to generate the signal. In the absence of PIP3, an HTRF (Homogeneous Time-Resolved Fluorescence energy transfer) complex is formed consisting of europium (Eu)-labeled anti-GST, GSTtagged GRP1-PH domain, biotin-PIP3 and streptavidin conjugated APC. The native PIP3 produced by PI3-Kinase activity disrupts in a competitive manner the biotin-PIP3 from the PH domain, resulting in the loss of energy transfer (HTRF complex) and a decrease in the signal. The format of this assay is the same for all 4 isoforms of PI3K; the differences lie in the concentration of enzyme used to achieve robust assay window. The alpha, beta, and delta assays are run at 0.5, 1, and 0.3 nM enzymes and the gamma assay is run at 5 nM enzyme. The ATP concentration is 100 uM in the alpha, beta, and delta assays and 50 uM ATP in the gamma assay. All reactions are run at 5 uM PIP2.
as §1, §2, §3, §4

On to `CCn1c(-c2cnc(C)nc2)nc2c(N[C@H]3CCN(C(=O)C4CCOC(C)(C)C4)C3)ncnc21` (mixture of isomers) [Compound 2-20, ((S and R)-2,2-dimethyltetrahydro-2H-pyran-4-yl)((S)-3-((9-ethyl-8-(2-methylpyrimidin-5-yl)-9H-purin-6-yl)amino)pyrrolidin-1-yl)methanone], for which, at PI3K-delta, the IC50 was 1.4 nM. The “Selectivity versus PI3Kalpha” value at PI3K-alpha is over 10.
Take `CCn1c(-c2cnc(C)nc2)nc2c(N[C@H]3CCN(C(=O)C4(N)CC4)C3)ncnc21` [Compound 2-84, N-{(3S)-1-[(1-aminocyclopropyl)carbonyl]pyrrolidin-3-yl}-9-ethyl-8-(2-methylpyrimidin-5-yl)-9H-purin-6-amine]: the IC50 at PI3K-delta turned out to be 20 nM. Also, the “Selectivity versus PI3Kalpha” value at PI3K-alpha is over 10.
On to `CCC(=O)N1CC[C@H](Nc2ncnc3c2nc(C2CC2)n3C)C1` [Compound 7-9, 8-cyclopropyl-9-methyl-N-[(3S)-1-propanoylpyrrolidin-3-yl]-9H-purin-6-amine], for which the IC50 at PI3K-delta is 98 nM. The “Selectivity versus PI3Kalpha” value on PI3K-alpha was over 10.
Take `CCn1ncc(-c2nc3c(N[C@@H]4CCN(C(=O)OC(C)(C)C)C4)ncnc3n2C)c1C` [Compound 1-1, tert-butyl (3R)-3-{[8-(1-ethyl-5-methyl-1H-pyrazol-4-yl)-9-methyl-9H-purin-6-yl]amino}pyrrolidine-1-carboxylate]: the IC50 on PI3K-delta came to 15 nM. The “Selectivity versus PI3Kalpha” value at PI3K-alpha is given as over 10.
For the molecule `CCC(=O)N1CC[C@H](Nc2ncnc3c2nc(-c2cnc(C(C)(C)C)s2)n3C)C1` [Compound 2-14, (S)-1-(3-((8-(2-(tert-butyl)thiazol-5-yl)-9-methyl-9H-purin-6-yl)amino)pyrrolidin-1-yl)propan-1-one], the IC50 at PI3K-delta was determined as 1.2 nM. Besides, the “Selectivity versus PI3Kalpha” value on PI3K-alpha is listed as over 10.
On to `CCn1c(-c2cnc(C)nc2)nc2c(NC3CN(C(=O)C4CC4)CC3C)ncnc21` (racemic) [Compound 3-16, N-[(3R,4R and 3S,4S)-1-(cyclopropylcarbonyl)-4-methylpyrrolidin-3-yl]-9-ethyl-8-(2-methylpyrimidin-5-yl)-9H-purin-6-amine], for which, on PI3K-delta, the IC50 is 3.4 nM. The “Selectivity versus PI3Kalpha” value on PI3K-alpha was over 10.
For `CCn1c(-c2cnc(C)nc2)nc2c(N[C@H]3C[C@H](C(=O)OC)N(c4ccccn4)C3)ncnc21` [Compound 4-12, methyl (4S)-4-{[9-ethyl-8-(2-methylpyrimidin-5-yl)-9H-purin-6-yl]amino}-1-pyridin-2-yl-D-prolinate], the IC50 at PI3K-delta was 8.2 nM. The “Selectivity versus PI3Kalpha” value at PI3K-alpha is reported as over 10.
Taken in the same sequence, the figures for `CCn1c(-c2cnc(C(C)(C)C)s2)nc2c(N(C)[C@H]3CCN(C(=O)OC(C)(C)C)C3)ncnc21` [Compound 1-7, (S)-tert-butyl 3-((8-(2-(tert-butyl)thiazol-5-yl)-9-ethyl-9H-purin-6-yl)(methyl)amino)pyrrolidine-1-carboxylate] were 6.7 nM and over 10.
With `CCn1ncc(-c2nc3c(N(C)[C@H]4CCN(C(=O)OC(C)(C)C)C4)ncnc3n2C)c1C` [Compound 1-3, (S)-tert-butyl 3-((8-(1-ethyl-5-methyl-1H-pyrazol-4-yl)-9-methyl-9H-purin-6-yl)(methyl)amino)pyrrolidine-1-carboxylate], on PI3K-delta, the IC50 amounted to 98 nM. The “Selectivity versus PI3Kalpha” value on PI3K-alpha is reported as over 10.
Taken in the same sequence, the figures for `CCn1c(-c2ccc(C(F)(F)F)nc2)nc2c(N[C@H]3CCN(C(=O)N4CCC4)C3)ncnc21` [Compound 12-26, N-[(3S)-1-(azetidin-1-ylcarbonyl)pyrrolidin-3-yl]-9-ethyl-8-[6-(trifluoromethyl)pyridin-3-yl]-9H-purin-6-amine] were under 1 nM and over 10.
In the case of `CCn1c(-c2cnc(C)nc2)nc2c(N[C@H]3CCN(C(=O)NC4CC4)C3)ncnc21` [Compound 12-6, (3S)-N-cyclopropyl-3-{[9-ethyl-8-(2-methylpyrimidin-5-yl)-9H-purin-6-yl]amino}pyrrolidine-1-carboxamide], the IC50 on PI3K-delta came out at 1.7 nM. On PI3K-alpha, the “Selectivity versus PI3Kalpha” value is on record as over 10.
Turning to `CCn1c(-c2cnc(C)nc2)nc2c(N[C@H]3CCN(C(=O)C(C)(C)N)C3)ncnc21` [Compound 2-80, N-[(3S)-1-(2-amino-2-methylpropanoyl)pyrrolidin-3-yl]-9-ethyl-8-(2-methylpyrimidin-5-yl)-9H-purin-6-amine], the IC50 at PI3K-delta was 61 nM. For the same molecule, the “Selectivity versus PI3Kalpha” value at PI3K-alpha is over 10.
For `CCn1c(-c2cnc(C)nc2)nc2c(N[C@H]3CCN(c4ncccc4C)C3)ncnc21` [Compound 4-10, 9-ethyl-N-[(3S)-1-(3-methylpyridin-2-yl)pyrrolidin-3-yl]-8-(2-methylpyrimidin-5-yl)-9H-purin-6-amine], in that order: 13 nM and over 10.
Take `CCC(=O)N1CC[C@H](Nc2ncnc3c2nc(-c2cncc(N)c2)n3C)C1` [Compound 3-13, 8-(5-aminopyridin-3-yl)-9-methyl-N-[(3S)-1-propanoylpyrrolidin-3-yl]-9H-purin-6-amine]: the IC50 on PI3K-delta turned out to be 2.4 nM. The “Selectivity versus PI3Kalpha” value at PI3K-alpha is over 10.
Regarding `CCn1c(-c2cnc(C)nc2)nc2c(N[C@H]3CCN(c4ccc(C)cn4)C3)ncnc21` [Compound 4-3, 9-ethyl-N-[(3S)-1-(5-methylpyridin-2-yl)pyrrolidin-3-yl]-8-(2-methylpyrimidin-5-yl)-9H-purin-6-amine], the IC50 on PI3K-delta came to 3.7 nM. Further, on PI3K-alpha, the “Selectivity versus PI3Kalpha” value was over 10.
Regarding `CCOC(=O)CCNC(=O)N1CC[C@H](Nc2ncnc3c2nc(-c2cnc(C)nc2)n3CC)C1` [Compound 12-17, ethyl N-{[(3S)-3-{[9-ethyl-8-(2-methylpyrimidin-5-yl)-9H-purin-6-yl]amino}pyrrolidin-1-yl]carbonyl}-beta-alaninate], the IC50 at PI3K-delta came to 13 nM. Besides, at PI3K-alpha, the “Selectivity versus PI3Kalpha” value was over 10.
Take `CCn1c(-c2cnc(C)nc2)nc2c(N[C@H]3CCN(C(=O)NC(C)(C)C(=O)OC)C3)ncnc21` [Compound 12-24, methyl N-{[(3S)-3-{[9-ethyl-8-(2-methylpyrimidin-5-yl)-9H-purin-6-yl]amino}pyrrolidin-1-yl]carbonyl}-2-methylalaninate]: the IC50 at PI3K-delta is 1.9 nM. Also, at PI3K-alpha, the “Selectivity versus PI3Kalpha” value is on record as over 10.
For the molecule `CCn1c(C(F)F)nc2c(N[C@H]3CCN(C(=O)[C@H]4CCCN4C)C3)ncnc21` [Compound 7-19, 8-(difluoromethyl)-9-ethyl-N-[(3S)-1-(1-methyl-D-prolyl)pyrrolidin-3-yl]-9H-purin-6-amine], the IC50 at PI3K-delta worked out at 380 nM. For the same molecule, the “Selectivity versus PI3Kalpha” value on PI3K-alpha is reported as over 10.
Taken in the same sequence, the figures for `CCC(=O)N1CC[C@H](Nc2ncnc3c2nc(-c2cnn(CC)c2C)n3CC)C1` [Compound 2-15, (S)-1-(3-((9-ethyl-8-(1-ethyl-5-methyl-1H-pyrazol-4-yl)-9H-purin-6-yl)amino)pyrrolidin-1-yl)propan-1-one] were under 1 nM and over 10.
Take `CCn1c(-c2cnc(C)nc2)nc2c(N[C@H]3CCN(C(=O)[C@H]4C[C@@H](OC)C4)C3)ncnc21` [Compound 2-39, 9-ethyl-N-{(3S)-1-[(cis-3-methoxycyclobutyl)carbonyl]pyrrolidin-3-yl}-8-(2-methylpyrimidin-5-yl)-9H-purin-6-amine]: the IC50 on PI3K-delta was under 1 nM. The “Selectivity versus PI3Kalpha” value at PI3K-alpha was over 10.
On to `CCC(=O)N1CC[C@H](Nc2ncnc3c2nc(-c2ccc(OC)nc2)n3C)C1` [Compound 3-31, 8-(6-methoxypyridin-3-yl)-9-methyl-N-[(3S)-1-propanoylpyrrolidin-3-yl]-9H-purin-6-amine], for which, at PI3K-delta, the IC50 is 4 nM. Moreover, the “Selectivity versus PI3Kalpha” value on PI3K-alpha is over 10.
As for `CCn1c(-c2cnc(C)nc2)nc2c(N[C@H]3CCCN(C(=O)C(C)C)C3)ncnc21` [Compound 2-44, 9-ethyl-N-[(3S)-1-(2-methylpropanoyl)piperidin-3-yl]-8-(2-methylpyrimidin-5-yl)-9H-purin-6-amine], the IC50 on PI3K-delta is 9 nM. In addition, the “Selectivity versus PI3Kalpha” value at PI3K-alpha was over 10.
`CCC(=O)N1CC[C@H](Nc2ncnc3c2nc(-c2cnc(OC)c(C)c2)n3C)C1` [Compound 2-12, (S)-1-(3-((8-(6-methoxy-5-methylpyridin-3-yl)-9-methyl-9H-purin-6-yl)amino)pyrrolidin-1-yl)propan-1-one]: at PI3K-delta, the IC50 was 3.5 nM. In addition, at PI3K-alpha, the “Selectivity versus PI3Kalpha” value is reported as over 10.
As for `CCn1c(-c2cnc(C)nc2)nc2c(N[C@H]3CCN(C(=O)NC4CCCCC4)C3)ncnc21` [Compound 12-16, (3S)-N-cyclohexyl-3-{[9-ethyl-8-(2-methylpyrimidin-5-yl)-9H-purin-6-yl]amino}pyrrolidine-1-carboxamide], the IC50 at PI3K-delta came out at 16 nM. The “Selectivity versus PI3Kalpha” value on PI3K-alpha is over 10.
For `CCn1c(-c2cnc(C)nc2)nc2c(N[C@H]3C[C@@H](C(=O)OC)N(C(=O)OC(C)(C)C)C3)ncnc21` [Compound 1-19, 1-tert-butyl 2-methyl (2S,4S)-4-{[9-ethyl-8-(2-methylpyrimidin-5-yl)-9H-purin-6-yl]amino}pyrrolidine-1,2-dicarboxylate], the IC50 at PI3K-delta is 69 nM. In addition, on PI3K-alpha, the “Selectivity versus PI3Kalpha” value is reported as over 10.
For the molecule `CCn1c(-c2cnc(C)nc2)nc2c(N[C@H]3CCN(C(=O)C4CC(O)C4)C3)ncnc21` (mixture of isomers) [Compound 2-63, (cis and trans)-3-{[(3S)-3-{[9-ethyl-8-(2-methylpyrimidin-5-yl)-9H-purin-6-yl]amino}pyrrolidin-1-yl]carbonyl}cyclobutanol], at PI3K-delta, the IC50 was under 1 nM. Also, the “Selectivity versus PI3Kalpha” value at PI3K-alpha is over 10.
With `CCC(=O)N1CC[C@H](Nc2ncnc3c2nc(-c2ccc(OC)c(F)c2)n3C)C1` [Compound 3-10, 8-(3-fluoro-4-methoxyphenyl)-9-methyl-N-[(3S)-1-propanoylpyrrolidin-3-yl]-9H-purin-6-amine], on PI3K-delta, the IC50 was 1.8 nM. Also, the “Selectivity versus PI3Kalpha” value at PI3K-alpha is recorded as over 10.
